The IC50 is the concentration at which inhibition is half-maximal. In general, inhibition refers to the drop in the measured response relative to a control, in per cent.

Some results are limits rather than exact numbers.

Common to all, as to type: biochemical
One assay addresses T1, HER-2 (Homo sapiens, UniProt P04626).
T1 construct: His6 with thrombin site (N); purchased Proqinase (Freiburg, Germany)
The experiment in a line: HER-2 Kinase Assay. Conditions: for IC50: value in parentheses; for inhibition at 1 µM: test concentration of 1 μM. The method, boiled down: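 GST/HIS6-tagged HER-2 aa 679–1255 kinase with biotinylated polyGluTyr (1.5 ng/μL), 1 μM ATP plus γ-33P-ATP, Mg2+/Mn2+, DTT, Hepes pH 7.5; 1 h at 30 °C. Substrate phosphorylation captured on streptavidin scintillation plates after EDTA/PBS washes; values are % inhibition at 1 μM or IC50.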

For a further assay, the target named is T2, Lyn kinase (human) (Homo sapiens, UniProt P07948).
T2 construct: purchased Upstate Biotechnology, Lake Placid, N.Y
The experiment in a line: Lyn Kinase Assay. As to conditions: test concentration of 2 μM. Here is the method: A mixture of a 10× kinase buffer (500 mM MOPS at pH 7.5, 1 mM EGTA, 1 mM Sodium Vanadate, 1% β-mercaptoethanol and 100 mM Magnesium Acetate), ATP (5 μM final from a 10 mM stock), polyGluTyr (0.1 mg/mL final from a 1 mg/mL stock), γ-^33P ATP (10 μCl/μL stock) and water (for a total of 20 μL/well) was added to each well of a Streptavidin Flashplate.
Test compound in 100% DMSO (0.5 μL) was added to the appropriate wells. Diluted Lyn kinase (human)(Accession Number EMBL M16038) (Upstate Biotechnology, Lake Placid, N.Y.) (diluted in a buffer consisting of 50 mM Tris at pH 7.5, 0.1 mM EGTA, Sodium Vanadate (0.1 mM), β-mercaptoethanol (0.1%) and 1 mg/mL bovine serum albumin) (2.5 μL) was added to the wells to initiate the reactions.
The reaction plates were incubated at 30° C. for 40 min. The reaction was terminated by the addition of a 3% phosphoric acid solution (5 μL). The reaction product (10 μL) was spotted onto a P30 filtermat and washed for 5 minutes in phosphoric acid (75 mM). The wash sequence was repeated two more times, followed with one final wash in methanol. The plates were then dried, sealed and read on the TopCount scintillation counter after adding 30 μL scintillation fluid.
The Lyn inhibition values were derived according to the procedure described in Example 164 and are shown as percent in Table 3 at a test concentration of 2 μM. For those compounds with an IC50, the IC50 value in μM is shown in parentheses. For compounds with multiple test values, each value represents a separate assay result.

A further assay addresses T3, EGFR (Homo sapiens, UniProt P00533).
T3 construct: The intracellular portion of EGFR started at nucleotide 2189 (corresponding to amino acid 667) and ended at the termination codon; made in house; host or cells: Sf9 insect cells (baculovirus)
The experiment in a line: EGFR Kinase Assay. As to conditions: for inhibition at 2 µM: test concentration of 2 μM, compounds without an IC50, read-out: EGFR inhibition in percent; for IC50: GST-EGFR, ATP 5 μM. The method in brief:
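GST-fused human EGFR intracellular domain (from aa 667), Sf9-expressed, phosphorylated biotinylated polyGluTyr with 5 μM ATP plus γ-33P ATP in Tris pH 8.0, MgCl2, vanadate, 1 mM DTT, 1 h at 30 °C. Streptavidin Flashplate scintillation read; triplicate 16-point half-log series from 200 uM; IC50 from % inhibition vs log concentration, else % inhibition at 2 μM.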

Another assay concerns the target T4, c-Src kinase (human) (Homo sapiens, UniProt P12931).
T4 construct: purchased Upstate Biotechnology, Lake Placid, N.Y
The experiment in a line: c-Src Kinase Assay. Conditions: test concentration of 2 μM; multiple values are separate assay results. Here is the method:
A mixture of a 10× kinase buffer (80 mM MOPS at pH 7.0, 2 mM EDTA and 100 mM Magnesium Chloride), ATP (5 μM final from a 10 mM stock), a Cdc2 peptide KVEKIGEGTYGVVYK (100 μM final from a 2.5 mM stock), γ-^33P ATP (10 μCl/μL stock) and water (for a total of 20 μL/well) was added to each well of a Streptavidin Flashplate.
Test compound in 100% DMSO (0.5 μL) was added to the appropriate wells. Diluted c-Src kinase (human) (Accession Number SWISS-PROT P12931) (Upstate Biotechnology, Lake Placid, N.Y.) (diluted in a buffer consisting of 20 mM MOPS at pH 7.0, 1 mM EDTA, β-mercaptoethanol (0.1%), Brij-35 (0.01%), glycerol (5%), and 1 mg/mL bovine serum albumin) (2.5 μL) was added to the wells to initiate the reactions. The reaction plates were incubated at 30° C. for 40 min. The reaction was terminated by the addition of a 3% phosphoric acid solution (5 μL). The reaction product (10 μL) was spotted onto a P30 filtermat and washed for 5 minutes in phosphoric acid (75 mM). The wash sequence was repeated two more times, followed with one final wash in methanol. The plates were then dried, sealed and read on the TopCount scintillation counter after adding 30 μL scintillation fluid.
The c-Src inhibition values were derived using the percent inhibition formula provided in Example 164 and are shown as percent in Table 2 at a test concentration of 2 μM. For those compounds with an IC50, the IC50 value in μM is shown in parentheses. For compounds with multiple test values, each value represents a separate assay result.

T2 sequence (P07948 whole entry): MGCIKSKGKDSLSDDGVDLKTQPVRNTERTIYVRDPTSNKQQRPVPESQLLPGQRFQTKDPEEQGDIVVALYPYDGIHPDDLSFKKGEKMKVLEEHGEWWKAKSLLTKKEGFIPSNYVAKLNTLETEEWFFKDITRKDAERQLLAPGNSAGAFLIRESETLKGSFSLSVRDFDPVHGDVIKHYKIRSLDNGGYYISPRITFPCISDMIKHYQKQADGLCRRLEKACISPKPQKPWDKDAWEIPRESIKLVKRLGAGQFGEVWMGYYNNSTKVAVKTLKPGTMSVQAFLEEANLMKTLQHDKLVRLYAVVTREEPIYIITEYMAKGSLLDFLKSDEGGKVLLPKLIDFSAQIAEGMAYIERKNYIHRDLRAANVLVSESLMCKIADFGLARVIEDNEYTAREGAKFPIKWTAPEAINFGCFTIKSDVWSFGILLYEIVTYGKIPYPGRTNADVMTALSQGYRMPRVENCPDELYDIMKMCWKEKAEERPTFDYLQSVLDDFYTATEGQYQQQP
T3 sequence (P00533 669-1210 limits assumed): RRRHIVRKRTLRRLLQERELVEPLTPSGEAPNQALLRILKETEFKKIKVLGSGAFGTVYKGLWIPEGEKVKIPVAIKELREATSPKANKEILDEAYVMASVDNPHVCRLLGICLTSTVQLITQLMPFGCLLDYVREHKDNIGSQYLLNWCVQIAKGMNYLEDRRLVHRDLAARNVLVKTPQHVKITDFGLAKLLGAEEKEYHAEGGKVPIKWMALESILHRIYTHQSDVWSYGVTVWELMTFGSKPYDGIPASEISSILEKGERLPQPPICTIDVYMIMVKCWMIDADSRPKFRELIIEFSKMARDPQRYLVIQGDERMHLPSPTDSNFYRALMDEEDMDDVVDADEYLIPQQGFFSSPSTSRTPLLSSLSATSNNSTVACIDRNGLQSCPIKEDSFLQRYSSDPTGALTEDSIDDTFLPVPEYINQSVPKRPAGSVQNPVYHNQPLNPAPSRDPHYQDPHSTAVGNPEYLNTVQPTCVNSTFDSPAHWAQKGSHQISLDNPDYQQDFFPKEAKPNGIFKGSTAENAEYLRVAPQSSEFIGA
T4 sequence (P12931 whole entry): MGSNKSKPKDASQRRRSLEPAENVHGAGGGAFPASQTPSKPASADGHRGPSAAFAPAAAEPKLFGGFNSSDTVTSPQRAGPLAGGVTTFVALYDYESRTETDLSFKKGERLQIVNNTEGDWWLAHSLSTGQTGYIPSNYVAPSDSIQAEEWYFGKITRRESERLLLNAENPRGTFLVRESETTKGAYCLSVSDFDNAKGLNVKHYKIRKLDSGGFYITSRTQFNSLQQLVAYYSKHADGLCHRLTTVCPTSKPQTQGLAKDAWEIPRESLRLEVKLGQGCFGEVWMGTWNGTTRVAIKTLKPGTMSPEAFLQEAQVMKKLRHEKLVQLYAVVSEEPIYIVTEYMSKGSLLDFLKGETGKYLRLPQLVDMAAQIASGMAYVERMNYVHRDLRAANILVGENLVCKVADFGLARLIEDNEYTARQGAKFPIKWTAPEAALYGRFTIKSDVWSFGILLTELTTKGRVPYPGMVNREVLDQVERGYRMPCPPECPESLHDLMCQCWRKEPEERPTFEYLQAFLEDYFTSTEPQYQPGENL
T1 sequence (P04626 679-1255): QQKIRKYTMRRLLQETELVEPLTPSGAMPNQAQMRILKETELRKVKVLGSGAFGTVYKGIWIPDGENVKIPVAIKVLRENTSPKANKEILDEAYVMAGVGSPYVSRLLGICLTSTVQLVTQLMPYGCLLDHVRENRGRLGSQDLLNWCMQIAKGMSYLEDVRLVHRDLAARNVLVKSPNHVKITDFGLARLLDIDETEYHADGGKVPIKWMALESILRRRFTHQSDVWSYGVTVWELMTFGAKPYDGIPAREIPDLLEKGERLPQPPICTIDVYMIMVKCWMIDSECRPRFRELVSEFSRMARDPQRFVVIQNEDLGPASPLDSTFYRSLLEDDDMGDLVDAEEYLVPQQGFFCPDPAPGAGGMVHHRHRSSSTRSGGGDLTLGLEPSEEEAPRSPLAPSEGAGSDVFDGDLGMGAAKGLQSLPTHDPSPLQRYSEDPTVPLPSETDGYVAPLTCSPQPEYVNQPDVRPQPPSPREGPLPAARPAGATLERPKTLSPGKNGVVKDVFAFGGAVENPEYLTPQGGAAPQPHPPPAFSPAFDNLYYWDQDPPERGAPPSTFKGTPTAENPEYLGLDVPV

Consider `O=C(Nc1ccc(N2CCOCC2)cc1)c1sc2ncnc3c2c1NC(=O)N3c1ccc(N2CCOCC2)cc1` [Cpd 125, 5-(4-morpholin-4-yl-phenyl)-4-oxo-4,5-dihydro-3H-1-thia-3,5,6,8-tetraaza-acenaphthylene-2-carboxylic acid (4-morpholin-4-yl-phenyl)-amide], for which the IC50 at HER-2 was more than 100000 nM. The inhibition at 2 µM worked out at 21% at Lyn kinase (human), 20% on EGFR and 5% against c-Src kinase (human).
In the case of `O=C(Nc1ccc(CN2CCCCC2)cc1)c1sc2ncnc3c2c1NC(=O)N3c1ccc(F)cc1Cl` [Cpd 145, 5-(2-chloro-4-fluoro-phenyl)-4-oxo-4,5-dihydro-3H-1-thia-3,5,6,8-tetraaza-acenaphthylene-2-carboxylic acid (4-piperidin-1-ylmethyl-phenyl)-amide], the inhibition at 1 µM against HER-2 stood at 54%. Besides, the IC50 on HER-2 was determined as 4230 nM; on EGFR, 166 nM. Besides, the figures for the inhibition at 2 µM against Lyn kinase (human) and against c-Src kinase (human) were 83% and 50%, respectively.
Consider `COc1ccc(Cl)c(N2C(=O)Nc3c(C(=O)Nc4ccc(OCCN5CCCCC5)c(OC)c4)sc4ncnc2c34)c1` [Cpd 88, 5-(2-chloro-5-methoxy-phenyl)-4-oxo-4,5-dihydro-3H-1-thia-3,5,6,8-tetraaza-acenaphthylene-2-carboxylic acid [3-methoxy-4-(2-piperidin-1-yl-ethoxy)-phenyl]-amide], for which the inhibition at 2 µM on c-Src kinase (human) turned out to be 43%.
With `CN1CCN(Cc2ccc(NC(=O)c3sc4ncnc5c4c3NC(=O)N5c3ccc(Br)cc3F)cc2)CC1` [Cpd 70, 5-(4-bromo-2-fluoro-phenyl)-4-oxo-4,5-dihydro-3H-1-thia-3,5,6,8-tetraaza-acenaphthylene-2-carboxylic acid [4-(4-methyl-piperazin-1-ylmethyl)-phenyl]-amide], the IC50 turned out to be 1020 nM at HER-2 and 330 nM against EGFR. Also, the inhibition at 2 µM against c-Src kinase (human) was determined as 43%.
The like results for `O=C(Nc1ccc(NCCCN2CCOCC2)nc1)c1sc2ncnc3c2c1NC(=O)N3c1ccc(Br)cc1F` [Cpd 71, 5-(4-bromo-2-fluoro-phenyl)-4-oxo-4,5-dihydro-3H-1-thia-3,5,6,8-tetraaza-acenaphthylene-2-carboxylic acid [6-(3-morpholin-4-yl-propylamino)-pyridin-3-yl]-amide] were, in that order, 1760 nM, 850 nM and 44%.
As to `COc1cc(N2C(=O)Nc3c(C(=O)N(C)C)sc4ncnc2c34)ccc1Br` [Cpd 83, 5-(4-bromo-3-methoxy-phenyl)-4-oxo-4,5-dihydro-3H-1-thia-3,5,6,8-tetraaza-acenaphthylene-2-carboxylic acid dimethylamide], the concentration for half-maximal inhibition (IC50) at HER-2 was more than 10000 nM. The figures for the inhibition at 2 µM at EGFR and against c-Src kinase (human) were -2% and 44%, respectively.
With `CC(C)(C)OC(=O)NCCCNC(=O)c1sc2ncnc3c2c1NC(=O)N3c1ccc2c(ccn2Cc2cccc(F)c2)c1` [Cpd 141, [3-({5-[1-(3-fluoro-benzyl)-1H-indol-5-yl]-4-oxo-4,5-dihydro-3H-1-thia-3,5,6,8-tetraaza-acenaphthylene-2-carbonyl}-amino)-propyl]-carbamic acid tert-butyl ester], at HER-2, the IC50 is approximately 100000 nM. Moreover, the results for the inhibition at 2 µM on Lyn kinase (human) and at c-Src kinase (human) were 37% and 26%, respectively.
Consider `COc1cc(N2C(=O)Nc3c(C(=O)Nc4ccc(CN5CCN(C)CC5)cc4)sc4ncnc2c34)ccc1Br` [Cpd 85, 5-(4-bromo-3-methoxy-phenyl)-4-oxo-4,5-dihydro-3H-1-thia-3,5,6,8-tetraaza-acenaphthylene-2-carboxylic acid [4-(4-methyl-piperazin-1-ylmethyl)-phenyl]-amide], for which the IC50 at HER-2 is 4380 nM. The inhibition at 2 µM on EGFR is 36%; against c-Src kinase (human), -17%.
For `Cc1ccc(-n2nc(C(C)(C)C)cc2N2C(=O)Nc3c(C(=O)Nc4ccc(CN5CCOCC5)cc4)sc4ncnc2c34)cc1` [Cpd 76, 5-(5-tert-butyl-2-p-tolyl-2H-pyrazol-3-yl)-4-oxo-4,5-dihydro-3H-1-thia-3,5,6,8-tetraaza-acenaphthylene-2-carboxylic acid (4-morpholin-4-ylmethyl-phenyl)-amide], the inhibition at 1 µM against HER-2 was -11%. The inhibition at 2 µM at EGFR was 7%; against c-Src kinase (human) it was 43%.
In the case of `COc1cc(N2C(=O)Nc3c(C(=O)Nc4ccc(OC)c(OC)c4)sc4ncnc2c34)ccc1Br` [Cpd 82, 5-(4-bromo-3-methoxy-phenyl)-4-oxo-4,5-dihydro-3H-1-thia-3,5,6,8-tetraaza-acenaphthylene-2-carboxylic acid (3,4-dimethoxy-phenyl)-amide], the IC50 at HER-2 was more than 10000 nM. Further, the inhibition at 2 µM is 30% at EGFR and 43% at c-Src kinase (human).
On to `COc1ccc(NC(=O)c2sc3ncnc4c3c2NC(=O)N4c2ccc(Oc3ccccc3)cc2)cc1OC` [Cpd 99, 4-oxo-5-(4-phenoxy-phenyl)-4,5-dihydro-3H-1-thia-3,5,6,8-tetraaza-acenaphthylene-2-carboxylic acid (3,4-dimethoxy-phenyl)-amide], for which, at HER-2, the inhibition at 1 µM worked out at 60% and the IC50 turned out to be 915 nM. The compound also registered an IC50 at EGFR of 27 nM. Moreover, on c-Src kinase (human), the inhibition at 2 µM is -9%.
On to `COc1ccc(-c2sc3ncnc4c3c2NC(=O)N4c2ccc(F)c(Cl)c2)cc1OC` [Cpd 9, 5-(3-chloro-4-fluoro-phenyl)-2-(3,4-dimethoxy-phenyl)-3H,5H-1-thia-3,5,6,8-tetraaza-acenaphthylen-4-one], for which the values for the inhibition at 2 µM against Lyn kinase (human) and on c-Src kinase (human) were -7% and 26%, respectively. For the same compound, the IC50 against EGFR came to 1030 nM.
As for `COc1ccc(NC(=O)c2sc3ncnc4c3c2NC(=O)N4c2cc(Cl)ccc2OC)cc1OC` [Cpd 73, 5-(5-chloro-2-methoxy-phenyl)-4-oxo-4,5-dihydro-3H-1-thia-3,5,6,8-tetraaza-acenaphthylene-2-carboxylic acid (3,4-dimethoxy-phenyl)-amide], the inhibition at 1 µM against HER-2 is -14%. Besides, the values for the inhibition at 2 µM on EGFR and on c-Src kinase (human) were 51% and -17%, respectively.
Turning to `O=C(Nc1ccc(CCN2CCCCC2)cc1)c1sc2ncnc3c2c1NC(=O)N3c1ccc(Oc2ccccc2)c(F)c1` [Cpd 114, 5-(3-fluoro-4-phenoxy-phenyl)-4-oxo-4,5-dihydro-3H-1-thia-3,5,6,8-tetraaza-acenaphthylene-2-carboxylic acid [4-(2-piperidin-1-yl-ethyl)-phenyl]-amide], at HER-2, the inhibition at 1 µM came to 60% and the concentration for half-maximal inhibition (IC50) worked out at 536 nM. Moreover, the inhibition at 2 µM against Lyn kinase (human) came to 40%. Besides, on Lyn kinase (human) (2 µM), the “% Inhibition (Lyn)” value was 48.5%. For the same compound, half-maximal inhibition against EGFR (IC50) required 25 nM.

Values taken from patent US7579356B2, “Thia-tetraazaacenaphthylene kinase inhibitors” (Janssen Pharmaceutica NV, priority 2005, dated 2009).
